The values below come from patent EP1861101B1, “USE OF AMIDES OF SULFADIMIDINE FOR THE TREATMENT OF INTESTINAL DISEASES IN VETERINARY SCIENCE” (priority 2005, dated 2006).

Read-outs that look alike come from different tables or passages of the source.

The subject of data set [1] is digestive syndrome. The data set can be described thus: prevention and treatment of digestive syndrome (colibacillosis and enterotoxemia) in rabbit farming. The data set is classed as in vivo. To be noted: rabbits. From the text:
Given the complex relations existing between colibacillosis and enterotoxemia, they are currently included under the designation "digestive syndrome" for practical purposes. Treatment with an association of systemic drugs with drugs acting exclusively on the intestinal tract is indicated.
In the following table 2 the use of SMAA is compared to the products used most often in rabbit farming for the prevention and treatment of digestive syndrome: Table 2

The nature of data set [2]: depletion of residue in lambs fed treated feed until the day of slaughter. The data set is classed as in vivo. To be noted: lambs that consumed treated feed until the day of slaughter.
The test system of data set [3] is Clostridium, E. coli, Salmonella, and Eimeria parasites. The data set can be described thus: treatment of ovine livestock with SMAA in food. The data set is classed as in vivo. To be noted: even at high doses. From the text:
In general, ovine livestock according to the invention is preferably treated with SMAA in food. The invention is especially useful for the prevention of enteric bacterial processes, mainly due to Clostridium, E. coli, Salmonella, and Eimeria parasites. […] Incompatibilities with other medicaments are unknown. It is not necessary to establish a withdrawal period before slaughter.
According to the invention, the association of SMAA-chlortetracycline is preferred when the pathology is located fundamentally in the digestive tract, and the association of SMAA-oxytetracycline when a preventive action at the enteric and respiratory level is sought. The most habitual doses range from 200 and 400 g/ton of feed, although it can be raised to 750 g/ton without problems.

Data set [4] concerns C. perfringens. The data set is classed as in vivo, lambs. To be noted: 500 g/ton of feed.
In data set [5] the test system is Coccidia.
Data set [6] has as its system digestive bacterial diseases in pigs. The data set can be described thus: SMAA in feed against enteric processes in swine. The format is in vivo. To be noted: 400-600 g per ton of feed.
In data set [7] the test system is Serpulina hyodisenteriae. The experiment in a line: SMAA in feed against swine dysentery. The format is in vivo. To be noted: 550-600 g per ton of feed. The source says: Although establishing a dose for the administration of a therapeutic molecule is always difficult, because therapeutic efficacy not depend only on its efficacy at a given dose, but also on the state of the animals, management, sanitary conditions of operation, feeding etc., good results were obtained with SMAA in swine at doses of 550-600 g of SMAA per ton of feed. The association of SMAA with macrolides is interesting, but it is extremely important to consider the withdrawal period of the macrolide to avoid the accumulation of residues in carcasses.

Data set [8] can be described thus: solubility in water. The data set is classed as physicochemical. From the text: If the amide is the amide of maleic acid (SMAA), the amide comprises one carboxylic group. […] The free acids of the compound of the invention are essentially water insoluble and electrically neutral compounds, which become soluble in water when the free carboxyl group or other groups in the compound are converted to the carboxylate form by addition of an equivalent amount of an appropriate base, for instance an alkali or ammonium hydroxide or amine or alkanolamine.

Data set [9] concerns Eimeria. The experiment in a line: field tests, treatment of coccidiosis in broilers through feed. The data set is classed as in vivo. To be noted: 200 to 400 g/metric ton of feed; given in the first three weeks of life, then replaced by another coccidiostatic. The protocol:
SMAA was used for the treatment of coccidiosis in broilers through feed, at doses ranging from 200 to 400 g/metric ton of feed. The best results in terms of mortality, weight gain, and conversion index have been obtained when SMAA is administered in the first three weeks of life of the chickens, and then replaced by another coccidiostatic. To this effect, our experience confirms the observations that an even improved productivity is obtained when two different coccidiostatics are alternated in the growth period.

For data set [10] the following is noted: growth feed for swine; cited from earlier work.
In data set [11] the test system is Clostridium, E. coli, and Salmonella. The experiment in a line: treatment of ovine livestock with soluble SMAA in drinking water. The data set is classed as in vivo. How it is done: In another preferred embodiment of the invention, soluble SMAA is applied with drinking water. This application is especially useful for the treatment of enteric bacterial processes, mainly Clostridium, E. coli, and Salmonella. […] Incompatibilities with other medicaments are unknown. A withdrawal period before slaughter is not necessary. When non-absorbable derivatives of sulfadimidine are added to drinking water, they are not often associated with other molecules. […] The usual dose ranges from 550-1100 g/2000 liters of water for 4 to 6 days. The availability of a soluble form makes it possible to administer the product in a milk substitute. In this case the dosage should be established in relation to the consumption of powdered milk substitutes.

In the case of Neomycin, in data set [1] (efficacy remark), the Observations entry is “Efficacious against moderately pathogenic strains”.
Consider Colistin, for which, in data set [1] (effect on mortality), the Observations result was “Colistin reduces mortality”.
Turning to `Cc1cc(C)nc(NS(=O)(=O)c2ccc(NC(=O)/C=C\C(=O)O)cc2)n1` [SMAA, 4,6-dimethyl-2-N^4-maleylsulfanilamidopyrimidine], the Observations result in data set [1] (duration of treatment and toxicity) is listed as “Treatment can be prolonged without risk of toxicity”; in data set [1] (effect on mortality) it was “This treatment curtails mortality”; in data set [1] (efficacy remark) it was “The most effective agent in mixed infections by Coccidia”; in [5] (efficacy remark, rabbits), “most effective in mixed infections with E. coli”; in data set [5] (rabbit, in vivo), “Treatment can be extended up to 3 weeks, if given in low doses, without risk of toxicity or residues in carcasses”. In addition, the “residue level in meat” value in data set [2] was “below 30 ppb”. Further, in [3], the dysbacteriosis entry was “no problems of dysbacteriosis have appeared”. The mortality entry in data set [4] (end of trial (4 weeks), due to undetermined causes) is reported as “lower than 0.3%”. The “enterotoxemia in the livestock” value in data set [4] (end of trial (4 weeks), five thousand lambs, richer feed (1.03 UFC)) was “absent”. For the same molecule, the “watery diarrhea caused by E. coli, Salmonella dysentery, or coccidiosis” value in [4] (trial of 4 weeks) was “no case”. Moreover, the results in swine in [6] and in data set [7] was “good results” each time. The solubility in water result in data set [8] (listed as free acid of SMAA) is reported as “essentially insoluble”. Moreover, in [9], the “mortality, weight gain, and conversion index” value is on record as “best results”.
Take `Cc1cc(C)nc(NS(=O)(=O)c2ccc(N)cc2)n1` [Sulfadimidine, 2-(4-aminobenzenesulfonamido)-4,6-dimethylpyrimidine]: in [5] (effect on mortality, rabbits), the Observations result is “This treatment curtails mortality”. The withdrawal period in data set [10] is 28 days.
`Cc1cc(C)nc(NS(=O)(=O)c2ccc(NC(=O)/C=C\C(=O)O)cc2)n1` [soluble SMAA]: the dysbacteriosis result in data set [11] (even at high doses) was “no problems of dysbacteriosis have appeared”. The “treatment of coccidiosis outbreaks” value in data set [11] (usually 4 to 6 days) was “highly effective”. In [8] (listed as sodium salt), the solubility in water result is given as “essentially soluble”.
For `COc1cc(NS(=O)(=O)c2ccc(NC(=O)/C=C\C(=O)O)cc2)nc(OC)n1` [Sulfadimethoxine maleic acid amide], the Observations entry in data set [5] (efficacy remark, rabbits) is listed as “Very interesting in mixed infections”; in [5] (rabbit, in vivo), “Treatments can continue for 21 days without risk of toxicity or residues in carcasses”.
`COc1cc(NS(=O)(=O)c2ccc(N)cc2)nc(OC)n1` [Sulfadimethoxine]: the Observations result is given as “Very interesting in mixed infections” in [5] (efficacy remark, rabbits) and “requires a period of withdrawal before slaughter” in data set [5] (rabbit, in vivo).
Regarding `CCN1CCN(c2cc3c(cc2F)c(=O)c(C(=O)O)cn3C2CC2)CC1` [Enrofloxacin], the Observations entry in data set [1] (efficacy remark) is reported as “Effective”.
`O=C1OCCN1/N=C/c1ccc([N+](=O)[O-])o1` [Furazolidone]: the Observations entry in [1] (efficacy remark) is reported as “Effective”.
